Converted amounts (≈) assume the structure as drawn.
Tests used:
Format in all cases: functional
Escherichia coli [1] = assay: The compound was tested in vitro for antibacterial activity against Escherichia coli 250 UCS.
Streptococcus pneumoniae [2] = assay: The compound was tested in vitro for antibacterial activity against constitutively erythromycin resistant Streptococcus pneumoniae 030SJ1.
Staphylococcus aureus [3] = assay: The compound was tested in vitro for antibacterial activity against constitutively erythromycin resistant Staphylococcus aureus 011CB20.
Streptococcus pneumoniae [4] = assay: The compound was tested in vitro for antibacterial activity against constitutively erythromycin resistant Streptococcus pneumoniae 030CR18c.
Haemophilus influenzae [5] = assay: The compound was tested in vitro for antibacterial activity against Haemophilus influenza 351HT3.
Streptococcus pneumoniae [6] = assay: The compound was tested in vitro for antibacterial activity against inducibly erythromycin resistant Streptococcus pneumoniae 030J5i.
Staphylococcus aureus [7] = assay: The compound was tested in vitro for antibacterial activity against inducibly erythromycin resistant Staphylococcus aureus 011GO25i.
Staphylococcus aureus [8] = assay: The compound was tested in vitro for antibacterial activity against erythromycin susceptible Staphylococcus aureus 011UC4.
Streptococcus pyogenes [9] = assay: The compound was tested in vitro for antibacterial activity against erythromycin susceptible Streptococcus pyogenes 02A1UC1.
Streptococcus pneumoniae [10] = assay: The compound was tested in vitro for antibacterial activity against erythromycin susceptible Streptococcus pneumoniae 032UC1.
Streptococcus pneumoniae [11] = assay: The compound was tested in vitro for antibacterial activity against constitutively erythromycin resistant Streptococcus pneumoniae 030PW23c.
Streptococcus pneumoniae [12] = assay: The compound was tested in vitro for antibacterial activity against constitutively erythromycin resistant Streptococcus pneumoniae 030CR18c
Staphylococcus aureus [13] = assay: The compound was tested in vitro for antibacterial activity against inducibly erythromycin resistant Staphylococcus aureus 011GO25i
Streptococcus pneumoniae [14] = assay: The compound was tested in vitro for antibacterial activity against constitutively erythromycin resistant Streptococcus pneumoniae 030PW23c
Escherichia coli [15] = assay: The compound was tested in vitro for antibacterial activity against Escherichia coli 250 UCS
Streptococcus pneumoniae [16] = assay: The compound was tested in vitro for antibacterial activity against inducibly erythromycin resistant Streptococcus pneumoniae 030J5i
Streptococcus pneumoniae [17] = assay: The compound was tested in vitro for antibacterial activity against constitutively erythromycin resistant Streptococcus pneumoniae 030SJ1
Streptococcus pneumoniae [18] = assay: The compound was tested in vitro for antibacterial activity against erythromycin susceptible Streptococcus pneumoniae 032UC1
Streptococcus pyogenes [19] = assay: The compound was tested in vitro for antibacterial activity against erythromycin susceptible Streptococcus pyogenes 02A1UC1
Staphylococcus aureus [20] = assay: The compound was tested in vitro for antibacterial activity against constitutively erythromycin resistant Staphylococcus aureus 011CB20
Staphylococcus aureus [21] = assay: The compound was tested in vitro for antibacterial activity against erythromycin susceptible Staphylococcus aureus 011UC4
Haemophilus influenzae [22] = assay: The compound was tested in vitro for antibacterial activity against Haemophilus influenza 351HT3

Row | SMILES | MIC (Escherichia coli [1]) [µg/mL] | MIC (Streptococcus pneumoniae [2]) [µg/mL] | MIC (Staphylococcus aureus [3]) [µg/mL] | MIC (Streptococcus pneumoniae [4]) [µg/mL] | MIC (Haemophilus influenzae [5]) [µg/mL] | MIC (Streptococcus pneumoniae [6]) [µg/mL] | MIC (Staphylococcus aureus [7]) [µg/mL] | MIC (Staphylococcus aureus [8]) [µg/mL] | MIC (Streptococcus pyogenes [9]) [µg/mL] | MIC (Streptococcus pneumoniae [10]) [µg/mL] | MIC (Streptococcus pneumoniae [11]) [µg/mL] | MIC (Streptococcus pneumoniae [12]) [µg/mL] | MIC (Staphylococcus aureus [13]) [µg/mL] | MIC (Streptococcus pneumoniae [14]) [µg/mL] | MIC (Escherichia coli [15]) [µg/mL] | MIC (Streptococcus pneumoniae [16]) [µg/mL] | MIC (Streptococcus pneumoniae [17]) [µg/mL] | MIC (Streptococcus pneumoniae [18]) [µg/mL] | MIC (Streptococcus pyogenes [19]) [µg/mL] | MIC (Staphylococcus aureus [21]) [µg/mL] | other results
1 | CC[C@H]1OC(=O)[C@H](C)C(=O)[C@H](C)[C@@H](O[C@@H]2O[C@H](C)C[C@H](N(C)C)[C@H]2O)[C@](C)(OC)C[C@@H](C)C(=O)[C@H](C)[C@H]2N(CCCCn3nnnc3-c3ccccc3)C(=O)O[C@]12C | 20 (≈ 24.6 µM) | 0.3 (≈ 0.369 µM) | 40 (≈ 49.2 µM) | 1.2 (≈ 1.48 µM) | 1.2 (≈ 1.48 µM) | 0.02 (≈ 0.0246 µM) | 0.6 (≈ 0.738 µM) | 0.02 (≈ 0.0246 µM) | 0.02 (≈ 0.0246 µM) | 0.02 (≈ 0.0246 µM) | 0.6 (≈ 0.738 µM) |  |  |  |  |  |  |  |  |  | 
2 | CC[C@H]1OC(=O)[C@H](C)C(=O)[C@H](C)[C@@H](O[C@@H]2O[C@H](C)C[C@H](N(C)C)[C@H]2O)[C@](C)(OC)C[C@@H](C)C(=O)[C@H](C)[C@H]2N(CCCCc3ccnc4ccccc34)C(=O)O[C@]12C |  |  |  |  |  |  |  |  |  |  |  | 1.2 (≈ 1.51 µM) | 0.08 (≈ 0.101 µM) | 1.2 (≈ 1.51 µM) | 40 (≈ 50.3 µM) | 0.02 (≈ 0.0251 µM) | 1.2 (≈ 1.51 µM) | 0.02 (≈ 0.0251 µM) | 0.02 (≈ 0.0251 µM) | 0.04 (≈ 0.0503 µM) | MIC (Staphylococcus aureus [20]): 40 µg/mL (≈ 50.3 µM); MIC (Haemophilus influenzae [22]): 1.2 µg/mL (≈ 1.51 µM)
3 | CC[C@H]1OC(=O)[C@H](C)C(=O)[C@H](C)[C@@H](O[C@@H]2O[C@H](C)C[C@H](N(C)C)[C@H]2O)[C@](C)(OC)C[C@@H](C)C(=O)[C@H](C)[C@H]2N(CCCCn3cnc(-c4ccccc4)n3)C(=O)O[C@]12C | 40 (≈ 49.3 µM) | 0.6 (≈ 0.739 µM) | 40 (≈ 49.3 µM) | 1.2 (≈ 1.48 µM) | 1.2 (≈ 1.48 µM) | 0.3 (≈ 0.369 µM) | 0.15 (≈ 0.185 µM) | 0.02 (≈ 0.0246 µM) | 0.02 (≈ 0.0246 µM) | 0.04 (≈ 0.0493 µM) | 1.2 (≈ 1.48 µM) |  |  |  |  |  |  |  |  |  | 
4 | CC[C@H]1OC(=O)[C@H](C)C(=O)[C@H](C)[C@@H](O[C@@H]2O[C@H](C)C[C@H](N(C)C)[C@H]2OC(C)=O)[C@](C)(OC)C[C@@H](C)C(=O)/C(C)=C/[C@]1(C)OC(=O)n1ccnc1 |  |  | 40 (≈ 56.7 µM) |  |  |  |  |  |  |  |  | 10 (≈ 14.2 µM) | 0.15 (≈ 0.213 µM) | 10 (≈ 14.2 µM) | 20 (≈ 28.3 µM) | 0.08 (≈ 0.113 µM) | 10 (≈ 14.2 µM) | 0.02 (≈ 0.0283 µM) | 0.02 (≈ 0.0283 µM) | 0.08 (≈ 0.113 µM) | MIC (Haemophilus influenzae [22]): 2.5 µg/mL (≈ 3.54 µM)
5 | CC[C@H]1OC(=O)[C@H](C)C(=O)[C@H](C)[C@@H](O[C@@H]2O[C@H](C)C[C@H](N(C)C)[C@H]2O)[C@](C)(OC)C[C@@H](C)C(=O)[C@H](C)[C@H]2N(CCCCn3ccc4ccccc43)C(=O)O[C@]12C | 10 (≈ 12.8 µM) | 2.5 (≈ 3.19 µM) | 40 (≈ 51 µM) | 2.5 (≈ 3.19 µM) | 0.6 (≈ 0.765 µM) | 0.08 (≈ 0.102 µM) | 0.08 (≈ 0.102 µM) | 0.04 (≈ 0.051 µM) | 0.02 (≈ 0.0255 µM) | 0.02 (≈ 0.0255 µM) | 2.5 (≈ 3.19 µM) |  |  |  |  |  |  |  |  |  | 

Source: ChEMBL document CHEMBL1131863, “Synthesis and antibacterial activity of HMR 3647 a new ketolide highly potent against erythromycin-resistant and susceptible pathogens” (1999)
